Marks after values point to notes of the source that are not given here.
System: subjects with mild-to-moderate AD
Experiment: ADCS-ADL (Activities of Daily Living) change from baseline, 57-week Phase 2a study and 208-week extension study
Assay type: in vivo, human
Set-up: key to unadjusted change in ADCS-ADL score, Mean ± Std. Dev: change from baseline on ADCS-ADL scale 0–78, higher = greater function
Conditions: for ADCS-ADL Cohen's d: week 57, compared to standard of care
Description: The present study integrates and analyzes data and samples from two consecutive clinical trials: 57-week study and 208-week study. 57-week study was a multicenter Phase 2a clinical trial of the drug ANAVEX2-73 that recruited a sample of 32 subjects with mild-to-moderate AD. It consisted of two parts: Part A was a simple randomized, open-label, two-period, cross-over, adaptive trial lasting up to 5 weeks. Each period involved one specific administration route and two possible dose levels: in one period the oral dose (30 mg or 50 mg) was administrated and in the other period an intravenous (IV) form (3 mg or 5 mg) was administered, making a total of 8 possible dose administration schemes in Part A (details available in FIG. 2A). The two periods were separated by a wash-out period of 12 days where no dose was given.
Part B, following immediately after Part A, was an open-label extension of the oral daily dose for an additional 52 weeks. The primary endpoint of 57-week study was to establish the safety and tolerability of the drug. Secondary endpoints aimed at establishing the relationship between dosing regimen and pharmacodynamics-exploratory efficacy outcomes of cognition and function. Cognition was assessed by the Mini Mental State Examination (MMSE), while functional abilities by the Alzheimer's Disease Co-operative Study—Activities of Daily Living Inventory (ADCS-ADL). Additional cognitive measures included the Cogstate Brief Battery (CBB), and functional measures of Electroencephalography and Event-Related Potential (EEG and ERP). Part B continued an adaptive oral administration scheme. Table 12 summarizes mean oral dose administration during the 57-week study study.
Due to favorable safety and tolerability profile of the 57-week study (Table 2), and in response to requests from patients and caregivers, a 208-week open-label extension study (208-week study) was carried out immediately after completion of 57-week study Part B. 208-week study enrolled the 24 subjects who completed Part B and applied similarly an adaptive daily oral administration scheme. ANAVEX2-73-003 involves continuous evaluation of safety and efficacy as measured by the MMSE and ADCS-ADL. At week 148 (interim time point for analyses), data on the subjects remaining in the study (n=21) was analyzed for efficacy outcomes. This report was drafted using data available at week 148, while ANAVEX2-73-003 is still ongoing.
Exploratory clinical efficacy in this study was defined as change from baseline of each patient's cognitive (MMSE) and functional ability (ADCS-ADL) scores. The MMSE57 is a widely used, validated instrument in clinical AD research, including as a cognitive outcome measure in drug trials. The range of the scale is from 0 to 30, with a higher score indicating higher cognitive function. The ADCS-ADL58 is undertaken in a structured caregiver interview format and assesses performance in activities of daily living of patients with AD. The scale is from 0 to 78, with a higher score indicating greater function. The ADCS-ADL has shown to have good test-retest reliability 59. The MMSE and the ADCS-ADL were assessed during pre-specified clinical site visits across 14 different time points during the 57-week study (Weeks 0 and 5 in Part A; Weeks 17, 31, 41, 53, and 57 in Part B), and 208-week study (Weeks 70, 83, 96, 109, 122, 135, and 148) studies.
Corresponding Delta scores were calculated using the difference between values at each visit and at baseline for each individual patient, with a focus on Week 57. In addition, to lower the impact of noise in MMSE and ADCS-ADL scores, a Slope was estimated using a linear regression across all available time points for each individual patient. The derived scores describe the progression of exploratory efficacy data from baseline at several specific time points (Deltas) and over a set period of time (Slope). […]

Structure (SMILES): CN(C)CC1CCOC1(c1ccccc1)c1ccccc1.Cl (centres unmarked) [ANAVEX2-73, tetrahydro-N,N-dimethyl-2,2-diphenyl-3-furanmethanamine hydrochloride]
- unadjusted change in ADCS-ADL score, Mean ± Std. Dev (Group 3 (n 11), Week 70): −5.09 ± 10.70
- unadjusted change in ADCS-ADL score, Mean ± Std. Dev (Group 3 (n 11), Week 83): −5.55 ± 12.65
- unadjusted change in ADCS-ADL score, Mean ± Std. Dev (Group 3 (n 11), Week 96): −8.64 ± 16.10
- unadjusted change in ADCS-ADL score, Mean ± Std. Dev (Group 3 (n 11), Week 109): −9.45 ± 15.13
- unadjusted change in ADCS-ADL score, Mean ± Std. Dev (Group 3 (n 11), Week 122): −9.27 ± 12.17
- unadjusted change in ADCS-ADL score, Mean ± Std. Dev (Group 3 (n 11), Week 135): 11.09 ± 16.16
- unadjusted change in ADCS-ADL score, Mean ± Std. Dev (Group 3 (n 11), Week 148): −14.73 ± 17.70
- unadjusted change in ADCS-ADL score, Mean ± Std. Dev (Group 4 (n 14), Week 148): −19.43 ± 18.50
- unadjusted change in ADCS-ADL score, Mean ± Std. Dev (Group 4 (n 15), Week 109): −12.60 ± 15.00
- unadjusted change in ADCS-ADL score, Mean ± Std. Dev (Group 4 (n 15), Week 122): −15.20 ± 17.30
- unadjusted change in ADCS-ADL score, Mean ± Std. Dev (Group 4 (n 16), Week 0): 0.00 ± 0.00
- unadjusted change in ADCS-ADL score, Mean ± Std. Dev (Group 4 (n 16), Week 5): −1.25 ± 5.54
- unadjusted change in ADCS-ADL score, Mean ± Std. Dev (Group 4 (n 16), Week 17): −0.44 ± 3.42
- unadjusted change in ADCS-ADL score, Mean ± Std. Dev (Group 4 (n 16), Week 31): −2.31 ± 6.00
- unadjusted change in ADCS-ADL score, Mean ± Std. Dev (Group 4 (n 16), Week 41): −3.31 ± 7.03
- unadjusted change in ADCS-ADL score, Mean ± Std. Dev (Group 4 (n 16), Week 53): 3.81 ± 7.24
- unadjusted change in ADCS-ADL score, Mean ± Std. Dev (Group 4 (n 16), Week 57): −3.38 ± 7.60
- unadjusted change in ADCS-ADL score, Mean ± Std. Dev (Group 4 (n 16), Week 70): −6.94 ± 10.87
- unadjusted change in ADCS-ADL score, Mean ± Std. Dev (Group 4 (n 16), Week 96): −13.25 ± 16.77
- unadjusted change in ADCS-ADL score, Mean ± Std. Dev (Group 4 (n 16), Week 135): −19.12 ± 19.67
- unadjusted change in ADCS-ADL score, Mean ± Std. Dev (Group 5 (n 4), Week 5): −3.25 ± 11.30
- unadjusted change in ADCS-ADL score, Mean ± Std. Dev (Group 5 (n 4), Week 31): −8.75 ± 3.30
- unadjusted change in ADCS-ADL score, Mean ± Std. Dev (Group 5 (n 4), Week 122): −27.75 ± 12.26
- unadjusted change in ADCS-ADL score, Mean ± Std. Dev (Group 5 (n 5), Week 0): 0.00 ± 0.00
- unadjusted change in ADCS-ADL score, Mean ± Std. Dev (Group 5 (n 5), Week 17): −4.20 ± 4.09
- unadjusted change in ADCS-ADL score, Mean ± Std. Dev (Group 5 (n 5), Week 41): 6.00 ± 3.00
- unadjusted change in ADCS-ADL score, Mean ± Std. Dev (Group 5 (n 5), Week 53): −10.00 ± 6.78
- unadjusted change in ADCS-ADL score, Mean ± Std. Dev (Group 5 (n 5), Week 57): −11.20 ± 8.93
- unadjusted change in ADCS-ADL score, Mean ± Std. Dev (Group 5 (n 5), Week 70): −14.80 ± 9.63
- unadjusted change in ADCS-ADL score, Mean ± Std. Dev (Group 5 (n 5), Week 83): −13.20 ± 11.52
- unadjusted change in ADCS-ADL score, Mean ± Std. Dev (Group 5 (n 5), Week 96): −18.60 ± 11.67
- unadjusted change in ADCS-ADL score, Mean ± Std. Dev (Group 5 (n 5), Week 109): −19.20 ± 13.31
- unadjusted change in ADCS-ADL score, Mean ± Std. Dev (Group 5 (n 5), Week 135): −24.00 ± 14.65
- unadjusted change in ADCS-ADL score, Mean ± Std. Dev (Group 5 (n 5), Week 148): −26.00 ± 16.17
- unadjusted change in ADCS-ADL score, Mean ± Std. Dev (Group 6 (n 2), Week 5): 0.50 ± 9.19
- unadjusted change in ADCS-ADL score, Mean ± Std. Dev (Group 6 (n 2), Week 31): −10.50 ± 3.54
- unadjusted change in ADCS-ADL score, Mean ± Std. Dev (Group 6 (n 3), Week 0): 0.00 ± 0.00
- unadjusted change in ADCS-ADL score, Mean ± Std. Dev (Group 6 (n 3), Week 17): −5.00 ± 5.20
- unadjusted change in ADCS-ADL score, Mean ± Std. Dev (Group 6 (n 3), Week 41): −6.67 ± 4.04
- unadjusted change in ADCS-ADL score, Mean ± Std. Dev (Group 6 (n 3), Week 53): −12.67 ± 8.02
- unadjusted change in ADCS-ADL score, Mean ± Std. Dev (Group 6 (n 3), Week 57): −14.67 ± 10.50
- unadjusted change in ADCS-ADL score, Mean ± Std. Dev (Group 6 (n 3), Week 70): −18.00 ± 12.12
- unadjusted change in ADCS-ADL score, Mean ± Std. Dev (Group 6 (n 3), Week 83): −17.00 ± 14.11
- unadjusted change in ADCS-ADL score, Mean ± Std. Dev (Group 6 (n 3), Week 96): −26.00 ± 8.19
- unadjusted change in ADCS-ADL score, Mean ± Std. Dev (Group 6 (n 3), Week 109): 25.33 ± 14.47
- unadjusted change in ADCS-ADL score, Mean ± Std. Dev (Group 6 (n 3), Week 122): −32.67 ± 8.96
- unadjusted change in ADCS-ADL score, Mean ± Std. Dev (Group 6 (n 3), Week 135): −32.00 ± 13.75
- unadjusted change in ADCS-ADL score, Mean ± Std. Dev (Group 6 (n 3), Week 148): −34.33 ± 15.82
- favorable difference in adjusted ADCS-ADL, higher concentration arm compared with low/medium arm (MMRM-LME, over 148 weeks): 88%
- effect of higher concentrations on Delta ADCS-ADL scores (plasma concentration groups, week 57, p=0.03): improved
- ADCS-ADL Cohen's d (Absence of COMT_L146fs variant & Baseline MMSE ≥20, N 11): 0.89**
- ADCS-ADL Cohen's d (Absence of COMT_L146fs variant, N 16): 0.57*
- ADCS-ADL Cohen's d (Absence of SIGMAR1_Q2P variant, N 16): 0.43
- ADCS-ADL Cohen's d (Absence of SIGNAR1_Q2P variant & Baseline MMSE ≥20, N 11): 0.76*
- ADCS-ADL Cohen's d (All, N 21): 0.18
- ADCS-ADL Cohen's d (Baseline MMSE ≥20, N 13): 0.66*
